Publication PMC8861568, “Identification of (Z)-2-benzylidene-dihydroimidazothiazolone derivatives as tyrosinase inhibitors: Anti-melanogenic effects and in silico studies” (Computational and Structural Biotechnology Journal, 2022)
Entries after “also recorded” stand apart in the source; their conditions may differ.

What was measured:
[1] = target: T1, tyrosinase in B16F10 cells (Mus musculus, UniProt P11344); test: Cellular tyrosinase inhibition assay in B16F10 cells; type: cell-based, murine; conditions: 48 h; for cellular tyrosinase activity: 5, 10, 20 μM, α-MSH 1 μM + IBMX 200 μM
T1 construct: endogenous in cells; host or cells: B16F10 murine melanoma cells (ATCC), stimulated with alpha-MSH and IBMX
T1 sequence (P11344 19-533): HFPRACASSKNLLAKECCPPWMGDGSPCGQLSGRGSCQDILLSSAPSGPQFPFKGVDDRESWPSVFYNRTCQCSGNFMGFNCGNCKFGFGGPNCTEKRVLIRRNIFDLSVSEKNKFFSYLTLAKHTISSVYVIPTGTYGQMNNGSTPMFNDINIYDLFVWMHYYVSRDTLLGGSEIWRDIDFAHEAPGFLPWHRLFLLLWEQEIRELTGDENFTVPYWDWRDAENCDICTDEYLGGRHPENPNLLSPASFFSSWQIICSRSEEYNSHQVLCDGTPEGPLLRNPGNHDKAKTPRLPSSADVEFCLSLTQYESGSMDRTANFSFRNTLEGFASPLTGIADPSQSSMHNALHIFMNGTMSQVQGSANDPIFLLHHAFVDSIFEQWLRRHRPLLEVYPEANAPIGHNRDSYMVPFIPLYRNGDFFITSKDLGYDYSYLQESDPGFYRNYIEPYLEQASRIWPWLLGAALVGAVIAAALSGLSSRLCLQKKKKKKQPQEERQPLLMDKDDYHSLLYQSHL
Experimental: B16F10 cells co-stimulated with α -melanocyte-stimulating hormone (α -MSH) and 3-isobutyl-1-methylxanthine (IBMX) were used to investigate the inhibitory effects of compounds 1b and 1f on mammal cellular tyrosinase. Kojic acid was used as the positive control. […] Cellular tyrosinase activities were determined by measuring optical densities at 492 nm.
Cellular tyrosinase inhibition assays were conducted as previously described with minor modification. B16F10 cells were seeded at a density of 1 × 10^5 cells/well in 6-well plates and incubated in a humidified 5% CO2 atmosphere for 24 h at 37 °C. […] Cells were then washed twice with PBS, lysed by adding 45 mM of phosphate buffer (100 µL) containing 1% Triton X-100 (5 µL) and 1% PMSF (5 µL, phenylmethylsulfonyl fluoride) and frozen at −80 °C for 1 h. Lysates were clarified by centrifugation at 12,000 rpm for 30 min at 4 °C. Cell lysate supernatants (80 µL/well) in a 96-well plate were then mixed with 20 µL of L-DOPA (2 mg/mL in distilled water) and incubated for 30 min at 37 °C. Absorbances of reaction mixtures at 492 nm were recorded using a microplate reader (VersaMax^TM, Molecular Devices, Sunnyvale, CA, USA). Kojic acid was used as the positive control. Protein concentrations were determined using Bicinchoninic Acid (BCA) protein assay reagent using Bovine Serum Albumin (BSA) as the standard (Thermo Scientific, Rockford, IL, USA). All experiments were independently conducted three times.

B16F10 cells = test: Cell viability, EZ-cytox assay; type: cell-based, murine; conditions: up to 20 μM, 48 h
Experimental: Before examining inhibitory effects of compounds 1b and 1f on cellular tyrosinase activity, we examined their cytotoxic effects on B16F10 murine cells using the EZ-cytox assay (Daeil Lab Service, Seoul, Korea). After B16F10 cells had been cultured for 24 h, cells were treated with different concentrations (0, 1, 2, 5, 10 or 20 μM) of 1b or 1f for 48 h in a humidified atmosphere. Optical densities (ODs) were measured at 450 nm using a microplate reader.
Cell viability assays were performed at 37 °C as previously described with minor modification using the EZ-cytox assay. In brief, B16F10 melanoma cells were seeded in 96-well plates at a density of 1 × 10^4 cells/well and incubated in a humidified 5% CO2 atmosphere for 24 h at 37 °C. Cells were then treated with compounds 1b or 1f at 0, 1, 2, 5, 10, or 20 µM/well for 48 h. EZ-cytox solution (10 µL) (Daeil Lab Service, Seoul, Korea) was then added to each well and incubated for 1 h at 37 °C. Cell viabilities were assessed by measuring absorbances at 450 nm using a microplate reader (VersaMax^TM, Molecular Devices, Sunnyvale, CA, USA). All experiments were independently conducted three times.

[2] = target: mushroom tyrosinase (mTYR) (Agaricus bisporus, UniProt C7FF04); test: Kinetics of mTYR inhibition (Lineweaver-Burk plots); type: biochemical; conditions: for mode of mTYR inhibition: Lineweaver-Burk plots, L-tyrosine; for Vmax: independent of inhibitor concentration
Sequence of mushroom tyrosinase (mTYR) (C7FF04 1-392): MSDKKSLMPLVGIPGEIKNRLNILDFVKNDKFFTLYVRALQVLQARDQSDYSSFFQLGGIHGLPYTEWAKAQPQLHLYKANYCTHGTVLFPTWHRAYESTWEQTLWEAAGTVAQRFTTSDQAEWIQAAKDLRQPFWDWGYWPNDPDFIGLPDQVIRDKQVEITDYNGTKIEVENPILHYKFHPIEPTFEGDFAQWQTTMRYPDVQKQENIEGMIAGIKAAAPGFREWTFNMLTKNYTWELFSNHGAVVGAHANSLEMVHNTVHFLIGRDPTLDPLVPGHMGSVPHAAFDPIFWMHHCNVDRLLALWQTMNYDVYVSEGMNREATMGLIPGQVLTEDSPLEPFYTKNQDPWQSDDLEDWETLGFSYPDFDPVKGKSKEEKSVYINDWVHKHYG
Experimental: Lineweaver-Burk double reciprocal plots were used to determine their inhibitory modes of action. Kinetic analyses were carried out using four concentrations of DHIT derivatives 1b (0, 0.0625, 0.125, or 0.25 μM) and 1f (0, 1, 2, or 4 μM) in the presence of different concentrations of L-tyrosine (0.5, 1, 2, 4, 8, or 16 mM for 1b and 1, 2, 4, or 8 mM for 1f). Lineweaver-Burk double reciprocal plots produced four different lines with different slopes, corresponding to the four concentrations, for each derivative. […] KM values were 1.515, 7.846, 15.740, and 23.586 mM at […], and 3.758, 4.892, 5.206, and 8.127 mM at 0, 1, 2, and 4 μM of 1f, respectively. […] The binding abilities of compounds 1b and 1f to the active site of tyrosinase were also supported by in silico docking simulation results (Figs. 5 and 6).
Lineweaver-Burk plots were used to determine modes of mTYR inhibition. Compounds 1b or 1f (10 μL, final concentrations: 0, 0.0625, 0.125, or 0.25 μM for 1b and 0, 1, 2 or 4 μM for 1f) and mTYR solution (20 μL, 150 units) were added to a 96-well plate containing 170 μL of a mixture containing aqueous L-tyrosine solution at final concentrations of 0.5, 1.0, 2.0, 4.0, 8.0, or 16 mM for 1b or 1.0, 2.0, 4.0, or 8.0 mM for 1f; aqueous L-tyrosine solution, distilled water, and 50 mM potassium phosphate buffer (pH 6.5) in the ratio 10:9:10. Initial rates of dopachrome formations in reaction mixtures were calculated by measuring increases in optical density at 492 nm (ΔOD492/min) using a microplate reader (VersaMax^TM, Molecular Devices, Sunnyvale, CA, USA). Maximum velocities of tyrosinase-L-tyrosine reactions were determined using Lineweaver-Burk plots (inverse of reaction velocity (1/V) versus the inverse of L-tyrosine concentration (1/[S])) obtained using 4 – 5 different concentrations of L-tyrosine. Modes of tyrosinase inhibition were determined using convergence points of plots.

O=c1/c(=C/c2ccc(O)cc2O)sc2n1CCN=2 [Compound 1b, (Z)-2-(2,4-Dihydroxybenzylidene)-5,6-dihydroimidazo[2,1-b]thiazol-3(2H)-one]
cellular tyrosinase inhibition compared with kojic acid ([1]; 1b at 10 μM, α-MSH + IBMX): to the same extent as compound 1f or kojic acid at 20 μM | cellular tyrosinase activity [1]: significantly and concentration-dependently reduced this increase in tyrosinase activity | cytotoxic effect on B16F10 cells (B16F10 cells): without perceptible cytotoxicity; also recorded: Neither 1b nor 1f had a significant cytotoxic effect | mode of mTYR inhibition [2]: competitive inhibitors; also recorded: competitively inhibited | Ki ([2]; at 0.0625 μM of 1b): 15 nM | Ki ([2]; at 0.125 μM of 1b): 13.3 nM | Ki ([2]; at 0.25 μM of 1b): 17.2 nM | Vmax [2]: 0.0126 mM/min

COc1ccc(/C=c2\sc3n(c2=O)CCN=3)cc1O [Compound 1f, (Z)-2-(3-Hydroxy-4-methoxybenzylidene)-5,6-dihydroimidazo[2,1-b]thiazol-3(2H)-one]
cellular tyrosinase activity [1]: significantly and concentration-dependently reduced this increase in tyrosinase activity | cytotoxic effect on B16F10 cells (B16F10 cells): without perceptible cytotoxicity; also recorded: Neither 1b nor 1f had a significant cytotoxic effect | mode of mTYR inhibition [2]: competitive inhibitors; also recorded: competitively inhibited | Ki ([2]; at 1 μM of 1f): 3310 nM | Ki ([2]; at 2 μM of 1f): 5190 nM | Ki ([2]; at 4 μM of 1f): 3440 nM | Vmax [2]: 0.0103 mM/min
